Legend:
Assay type in all cases: cell-based, mouse
BMSCs = experiment: ECM mineralization by Alizarin Red stain; conditions: long-term treatment in osteogenic media
Protocol: Mouse bone marrow mesenchymal stem cells were isolated from aseptically dissected long bones of 6-week old C57BL/6 mice (Himberg, Austria). The marrow cavities were flushed with sterile medium using a 25-gauge needle, and the culture was established in α-MEM supplemented with 10% FCS and […]. After 48 hours of culture at 5% CO2 and 37° C., the non-adherent cells were removed by gentle rinsing with PBS. At confluence, cells were harvested and seeded at a density of 3,000/cm^2 for cell experiments. For osteogenic differentiation, cells were cultured in α-MEM supplemented with 10% FBS, […], 100 nM dexamethasone, 10 mM β-glycerophosphate, and 50 μg/mL ascorbic acid with or without L- or DL-SFN. Culture medium was renewed twice a week, and cells were cultured for the periods indicated in the result section.
Calvariae from 2 to 3-day-old and from 7-week old C57BL/6 mice were dissected aseptically. […] Thereafter, one part of the calvariae were fixed for 1 hour in 4% para-formaldehyde (PFA), and mineralization was measured by Alizarin Red S stain (Sigma-Aldrich). […] Alizarin Red S absorbance was measured at 562 nm in a multi-plate reader (Tecan, Maennedorf, Switzerland) and normalized to total protein amount measured by bicinchoninic acid assay (Thermo Fisher Scientific, Waltham, Mass., USA). […]

MC3T3-E1 cells [1] = experiment: ECM mineralization by Alizarin Red stain; conditions: MC3T3-E1, long-term treatment in osteogenic media
Protocol: Differentiation of MC3T3-E1 cells was induced with 50 μg/mL ascorbic acid (Sigma-Aldrich) and 5 mM β-glycerophosphate (Sigma-Aldrich) in medium containing 5% FBS. RAW 264.7 cells were cultured in Dulbecco's modified Eagle's medium (DMEM, Invitrogen, Carlsbad, Calif., USA) supplemented with 10% fetal bovine serum (Hyclone) and 2 mM glutamine (Gibco, Carlsbad, Calif., USA). Cells were seeded in culture dishes at a density of 20,000 cells/cm^2 and cultured overnight unless stated otherwise. Before cells were treated with compounds, the culture medium was changed.
(§1) Calvariae from 2 to 3-day-old and from 7-week old C57BL/6 mice were dissected aseptically. The calvarial bone explants were cultured in 48-well plates in α-MEM (Biochrom) containing 10% FCS (Biochrom), 50 μg/mL ascorbic acid (Sigma-Aldrich), 5 mM β-glycerophosphate (Sigma-Aldrich), and 10 μg/mL gentamicin (Sigma-Aldrich). The day after dissection, medium was changed, and a part of the explants was treated with 3 μM L- or DL-SFN for 12 days. Thereafter, one part of the calvariae were fixed for 1 hour in 4% para-formaldehyde (PFA), and mineralization was measured by Alizarin Red S stain (Sigma-Aldrich). For this purpose, Alizarin Red S dye was extracted using 10% cetylpyridinium chloride (CPC) in 10 mM sodiumphosphate (pH=7.0) for 45 minutes at room temperature. Alizarin Red S absorbance was measured at 562 nm in a multi-plate reader (Tecan, Maennedorf, Switzerland) and normalized to total protein amount measured by bicinchoninic acid assay (Thermo Fisher Scientific, Waltham, Mass., USA). From the other part of the calvariae, total RNA was extracted.

MLO-Y4 cells = experiment: RT-qPCR mRNA expression; conditions: MLO-Y4, 3 μM
Protocol: (§2) Total RNA was extracted using the SV Total RNA Isolation kit (Promega) following the supplier's instructions. cDNA was synthesized from about 0.5 μg RNA using the First Strand cDNA Synthesis kit (Roche) as described by the supplier. The resulting cDNAs were subjected to quantitative PCR amplification with a real-time cycler using the QUANTITECT™ SYBR® Green PCR Kit (Qiagen, Hilden, Germany) for the genes Alpl, Fas, Lox, Tet1, Tet2, and TAQMAN® Gene expression Master Mix (Applied Biosystems, Foster City, Calif., USA) for measuring Runx2, Bglap2, Colla1, Tnfsf11, and 18S rRNA expression (for primers, see Table 1). SYBR-Green RT-qPCR was started with an initial denaturation step at 95° C. for 10 minutes and then continued with 45 cycles consisting of 30 seconds denaturation at 95° C., 30 seconds annealing at primer-specific temperatures, and extension at 72° C. For measurement of the TAQMAN® assays, an initial denaturation at 95° C. for 10 minutes was applied, followed by 45 cycles alternating 60 seconds at 60° C. and 15 seconds at 95° C. All RT-qPCR assays were performed in triplicate, and expression was evaluated using the comparative quantification method (Pfaffl, Nucleic Acids Res., 29:e45 (2001)).

MC3T3-E1 cells [2] = experiment: RT-qPCR mRNA expression; conditions: MC3T3-E1, 3 μM; for mRNA expression of Bglap2, Colla1, Lox and Alpl: 14 days
Protocol: as §2

RAW 264.7 cells [3] = experiment: RT-qPCR mRNA expression; conditions: RAW 264.7, 3 μM
Protocol: as §2

RAW 264.7 cells [4] = experiment: Cell count (proliferation/viability); conditions: RAW 264.7, 24 hours, doses of 3 μM and higher
Protocol: Cell lines were seeded in 24-well culture dishes at a density of 20,000/cm^2 and were either left untreated (controls) or treated with L- or DL-SFN at the indicated concentrations for up to 48 hours. Thereafter, cells were detached with 0.001% pronase E, and the number of viable cells was assessed with Casy cell counter (Schaerfe Systems, Reutlingen, Germany). Each experiment was performed in quadruplicate, and experiments were carried out twice. For long term experiments, cell number was determined using DNA amount as surrogate. Cell layers were washed with PBS and fixed for 20 minutes with 4% PFA. Thereafter, Hoechst 33258 dye (Polysciences, Warrington, Pa., USA) was added (1 μg/mL), and, after an incubation of 15 minutes at room temperature, the fluorescence was measured (excitation 360, emission 465 nm). The amount of DNA was estimated using a standard curve prepared from calf thymus DNA (Roche).

[5] = system: neonatal calvarial explants; experiment: ECM mineralization by Alizarin Red stain in calvarial explants; conditions: newborn calvarial explants, 3 μM
Protocol: as §1, with “The day after dissection, medium was changed, and a part of the explants was treated with 3 μM L- or DL-SFN for 12 days.” left out

For `C[S+]([O-])CCCCN=C=S` (racemic) [DL-SFN], the ECM mineralization (BMSCs) was “significantly increased”, the ECM mineralization (MC3T3-E1 cells [1]) was “significantly increased” and the “mRNA expression for Tet1 or Tet2” value (MLO-Y4 cells) was “did not positively change”. The “Tnfsf11 mRNA expression” value (MLO-Y4 cells; 3 and 8 days, significant only at 8 days) was “reduced”, the “Fas mRNA expression” value (MLO-Y4 cells; 8 hours) was “not affected” and the “Fas mRNA expression” value (MLO-Y4 cells; 16 hours) was “significantly increased”. The “Runx2 mRNA expression” value (MC3T3-E1 cells [2]) was “stimulates”, the “Fas mRNA expression” value (MC3T3-E1 cells [2]; 8 hours) was “not affected” and the “Fas mRNA expression” value (MC3T3-E1 cells [2]; 16 hours) was “significantly increased”. For the same molecule, the “mRNA expression of Bglap2, Colla1, Lox and Alpl” value (MC3T3-E1 cells [2]) was “increased”, the “Tet1 mRNA levels” value (RAW 264.7 cells [3]; 8 and 16 hours, Tet2 not upregulated) was “upregulated” and the “expression of the pro-apoptotic gene Fas” value (RAW 264.7 cells [3]; 8 hours) was “not at 8 hours”. For the same molecule, the “expression of the pro-apoptotic gene Fas” value (RAW 264.7 cells [3]; 16 hours) was “up-regulated”, the “number of viable cells” value (RAW 264.7 cells [4]) was “reduced” and the ECM mineralization [5] was “significantly increased”.

`C[S+]([O-])CCCCN=C=S` [L-SFN] was tested, and the ECM mineralization (BMSCs) was “significantly increased”, the ECM mineralization (MC3T3-E1 cells [1]) was “significantly increased” and the “Fas mRNA expression” value (MLO-Y4 cells; 8 hours) was “not affected”. The “Fas mRNA expression” value (MC3T3-E1 cells [2]; 8 hours) was “not affected”, the “mRNA expression of Bglap2, Colla1, Lox and Alpl” value (MC3T3-E1 cells [2]) was “increased” and the “expression of the pro-apoptotic gene Fas” value (RAW 264.7 cells [3]; 8 hours) was “not at 8 hours”. The “expression of the pro-apoptotic gene Fas” value (RAW 264.7 cells [3]; 16 hours) was “up-regulated”, the “number of viable cells” value (RAW 264.7 cells [4]) was “reduced” and the ECM mineralization [5] was “significantly increased”.
